Test results: publication PMC8037182, “Solvothermal Synthesis of Multiple Dihydropyrimidinones at a Time as Inhibitors of Eg5” (Molecules, 2021)

How the values were obtained:
L929 cell line = experiment: Cytotoxicity MTS assay, L929 cell line; type: cell-based; conditions: for OD490 values, Mean / OD490 values, Well 1 / OD490 values, Well 2 / OD490 values, Well 3: L929 cell line
Procedure: (§1) The positive compounds (IC50 < 100 μM) obtained from the primary Eg5 motor protein ATPase assay were tested for antiproliferative activity in vitro against Caco-2 cell line, Hela cell line, L929 cell line and T24 cell line by performing MTS assay. Cells were introduced into 96-well plates at a density of 1000 cells per well. After 24 h incubation, the cells were exposed with compounds at final concentrations ranging from 0.5 to 100 µM for 24 h. DMSO was used at a final concentration of 0.025% as blank control, monastrol was used as the positive control. Then 20 µL (CellTiter 96® AQueous One Solution Promega, Madison, WI, USA) reagent was added in each well. After 2 h at 37 °C in a 80% humidified, 5% CO2 atmosphere, the absorbance at 490 nm was recorded using a microplate reader (BIO-RAD iMark^TM). The results were obtained in three independent duplicate experiments. The primary data were shown in Supplementary Materials Tables S4–S7. The IC50 values for these compounds were calculated from a non-linear regression graph plotted between the percentage of cell viability and concentration with SPSS17.0 software.

Hela cell line = experiment: Cytotoxicity MTS assay, Hela cell line; type: cell-based; conditions: for OD490 value, Mean / OD490 value, Well 1 / OD490 value, Well 2 / OD490 value, Well 3: Hela cell line, MTS
Procedure: as §1

CCOC(=O)c1c(C2NC(=O)NC(C)=C2C(=O)Nc2ccccc2OC)[nH]c(C(=O)OC)c1C (centres unmarked) [D1]
OD490 values, Mean (L929 cell line; 0.5μM, first assay): 1.3706 | OD490 values, Well 1 (L929 cell line; 0.5μM, first assay): 1.4101 | OD490 values, Well 2 (L929 cell line; 0.5μM, first assay): 1.3370 | OD490 values, Well 3 (L929 cell line; 0.5μM, first assay): 1.3648 | OD490 values, Mean (L929 cell line; 0.5μM, second assay): 1.7900 | OD490 values, Well 1 (L929 cell line; 0.5μM, second assay): 1.7354 | OD490 values, Well 2 (L929 cell line; 0.5μM, second assay): 1.9532 | OD490 values, Well 3 (L929 cell line; 0.5μM, second assay): 1.6814 | OD490 values, Mean (L929 cell line; 0.5μM, third assay): 1.6902 | OD490 values, Well 1 (L929 cell line; 0.5μM, third assay): 1.6425 | OD490 values, Well 2 (L929 cell line; 0.5μM, third assay): 1.7433 | OD490 values, Well 3 (L929 cell line; 0.5μM, third assay): 1.6847 | OD490 values, Mean (L929 cell line; 1μM, first assay): 1.3549 | OD490 values, Well 1 (L929 cell line; 1μM, first assay): 1.3334 | OD490 values, Well 2 (L929 cell line; 1μM, first assay): 1.3850 | OD490 values, Well 3 (L929 cell line; 1μM, first assay): 1.3462 | OD490 values, Mean (L929 cell line; 1μM, second assay): 1.7547 | OD490 values, Well 1 (L929 cell line; 1μM, second assay): 1.7965 | OD490 values, Well 2 (L929 cell line; 1μM, second assay): 1.7320 | OD490 values, Well 3 (L929 cell line; 1μM, second assay): 1.7355 | OD490 values, Mean (L929 cell line; 1μM, third assay): 1.7249 | OD490 values, Well 1 (L929 cell line; 1μM, third assay): 1.7365 | OD490 values, Well 2 (L929 cell line; 1μM, third assay): 1.7452 | OD490 values, Well 3 (L929 cell line; 1μM, third assay): 1.6930 | OD490 values, Mean (L929 cell line; 10μM, first assay): 1.3153 | OD490 values, Well 1 (L929 cell line; 10μM, first assay): 1.3870 | OD490 values, Well 2 (L929 cell line; 10μM, first assay): 1.3090 | OD490 values, Well 3 (L929 cell line; 10μM, first assay): 1.2498 | OD490 values, Mean (L929 cell line; 10μM, second assay): 1.7648 | OD490 values, Well 1 (L929 cell line; 10μM, second assay): 1.6895 | OD490 values, Well 2 (L929 cell line; 10μM, second assay): 1.7985 | OD490 values, Well 3 (L929 cell line; 10μM, second assay): 1.8063 | OD490 values, Mean (L929 cell line; 10μM, third assay): 1.7158 | OD490 values, Well 1 (L929 cell line; 10μM, third assay): 1.7235 | OD490 values, Well 2 (L929 cell line; 10μM, third assay): 1.7253 | OD490 values, Well 3 (L929 cell line; 10μM, third assay): 1.6985 | OD490 values, Mean (L929 cell line; 25μM, first assay): 1.2680 | OD490 values, Well 1 (L929 cell line; 25μM, first assay): 1.2444 | OD490 values, Well 2 (L929 cell line; 25μM, first assay): 1.2849 | OD490 values, Well 3 (L929 cell line; 25μM, first assay): 1.2747 | OD490 values, Mean (L929 cell line; 25μM, second assay): 1.6159 | OD490 values, Well 1 (L929 cell line; 25μM, second assay): 1.6525 | OD490 values, Well 2 (L929 cell line; 25μM, second assay): 1.5652 | OD490 values, Well 3 (L929 cell line; 25μM, second assay): 1.6301 | OD490 values, Mean (L929 cell line; 25μM, third assay): 1.4383 | OD490 values, Well 1 (L929 cell line; 25μM, third assay): 1.5307 | OD490 values, Well 2 (L929 cell line; 25μM, third assay): 1.3321 | OD490 values, Well 3 (L929 cell line; 25μM, third assay): 1.4521 | OD490 values, Mean (L929 cell line; 50μM, first assay): 1.2064 | OD490 values, Well 1 (L929 cell line; 50μM, first assay): 1.2251 | OD490 values, Well 2 (L929 cell line; 50μM, first assay): 1.1315 | OD490 values, Well 3 (L929 cell line; 50μM, first assay): 1.2627 | OD490 values, Mean (L929 cell line; 50μM, second assay): 1.4454 | OD490 values, Well 1 (L929 cell line; 50μM, second assay): 1.4685 | OD490 values, Well 2 (L929 cell line; 50μM, second assay): 1.3855 | OD490 values, Well 3 (L929 cell line; 50μM, second assay): 1.4822 | OD490 values, Mean (L929 cell line; 50μM, third assay): 1.3084 | OD490 values, Well 1 (L929 cell line; 50μM, third assay): 1.3124 | OD490 values, Well 2 (L929 cell line; 50μM, third assay): 1.3165 | OD490 values, Well 3 (L929 cell line; 50μM, third assay): 1.2962 | OD490 values, Mean (L929 cell line; 100μM, first assay): 1.1038 | OD490 values, Well 1 (L929 cell line; 100μM, first assay): 1.1234 | OD490 values, Well 2 (L929 cell line; 100μM, first assay): 1.0461 | OD490 values, Well 3 (L929 cell line; 100μM, first assay): 1.1419 | OD490 values, Mean (L929 cell line; 100μM, second assay): 1.2865 | OD490 values, Well 1 (L929 cell line; 100μM, second assay): 1.2022 | OD490 values, Well 2 (L929 cell line; 100μM, second assay): 1.2699 | OD490 values, Well 3 (L929 cell line; 100μM, second assay): 1.3874 | OD490 values, Mean (L929 cell line; 100μM, third assay): 1.3217 | OD490 values, Well 1 (L929 cell line; 100μM, third assay): 1.4554 | OD490 values, Well 2 (L929 cell line; 100μM, third assay): 1.2165 | OD490 values, Well 3 (L929 cell line; 100μM, third assay): 1.2933 | IC50 (L929 cell line; MTS assay, 24 h exposure, ordinary fibroblast, not cancer cells): 125 µM | OD490 value, Mean (Hela cell line; 0.5μM, first assay): 2.5955 | OD490 value, Well 1 (Hela cell line; 0.5μM, first assay): 2.6286 | OD490 value, Well 2 (Hela cell line; 0.5μM, first assay): 2.5425 | OD490 value, Well 3 (Hela cell line; 0.5μM, first assay): 2.6155 | OD490 value, Mean (Hela cell line; 0.5μM, second assay): 2.5919 | OD490 value, Well 1 (Hela cell line; 0.5μM, second assay): 2.6314 | OD490 value, Well 2 (Hela cell line; 0.5μM, second assay): 2.6010 | OD490 value, Well 3 (Hela cell line; 0.5μM, second assay): 2.5433 | OD490 value, Mean (Hela cell line; 0.5μM, third assay): 2.5096 | OD490 value, Well 1 (Hela cell line; 0.5μM, third assay): 2.7036 | OD490 value, Well 2 (Hela cell line; 0.5μM, third assay): 2.5565 | OD490 value, Well 3 (Hela cell line; 0.5μM, third assay): 2.2688 | OD490 value, Mean (Hela cell line; 1μM, first assay): 2.6416 | OD490 value, Well 1 (Hela cell line; 1μM, first assay): 2.6885 | OD490 value, Well 2 (Hela cell line; 1μM, first assay): 2.5442 | OD490 value, Well 3 (Hela cell line; 1μM, first assay): 2.6922 | OD490 value, Mean (Hela cell line; 1μM, second assay): 2.5793 | OD490 value, Well 1 (Hela cell line; 1μM, second assay): 2.5367 | OD490 value, Well 2 (Hela cell line; 1μM, second assay): 2.4698 | OD490 value, Well 3 (Hela cell line; 1μM, second assay): 2.7314 | OD490 value, Mean (Hela cell line; 1μM, third assay): 2.7183 | OD490 value, Well 1 (Hela cell line; 1μM, third assay): 2.6969 | OD490 value, Well 2 (Hela cell line; 1μM, third assay): 2.7546 | OD490 value, Well 3 (Hela cell line; 1μM, third assay): 2.7033 | OD490 value, Mean (Hela cell line; 10μM, first assay): 2.4106 | OD490 value, Well 1 (Hela cell line; 10μM, first assay): 2.3442 | OD490 value, Well 2 (Hela cell line; 10μM, first assay): 2.5603 | OD490 value, Well 3 (Hela cell line; 10μM, first assay): 2.3272 | OD490 value, Mean (Hela cell line; 10μM, second assay): 2.3296 | OD490 value, Well 1 (Hela cell line; 10μM, second assay): 2.6351 | OD490 value, Well 2 (Hela cell line; 10μM, second assay): 2.1367 | OD490 value, Well 3 (Hela cell line; 10μM, second assay): 2.2169 | OD490 value, Mean (Hela cell line; 10μM, third assay): 2.4826 | OD490 value, Well 1 (Hela cell line; 10μM, third assay): 2.5635 | OD490 value, Well 2 (Hela cell line; 10μM, third assay): 2.3145 | OD490 value, Well 3 (Hela cell line; 10μM, third assay): 2.5698 | OD490 value, Mean (Hela cell line; 25μM, first assay): 2.1398 | OD490 value, Well 1 (Hela cell line; 25μM, first assay): 2.1204 | OD490 value, Well 2 (Hela cell line; 25μM, first assay): 2.2546 | OD490 value, Well 3 (Hela cell line; 25μM, first assay): 2.0445 | OD490 value, Mean (Hela cell line; 25μM, second assay): 2.1914 | OD490 value, Well 1 (Hela cell line; 25μM, second assay): 2.2361 | OD490 value, Well 2 (Hela cell line; 25μM, second assay): 2.1235 | OD490 value, Well 3 (Hela cell line; 25μM, second assay): 2.2145 | OD490 value, Mean (Hela cell line; 25μM, third assay): 2.1507 | OD490 value, Well 1 (Hela cell line; 25μM, third assay): 2.2233 | OD490 value, Well 2 (Hela cell line; 25μM, third assay): 2.2142 | OD490 value, Well 3 (Hela cell line; 25μM, third assay): 2.0145 | OD490 value, Mean (Hela cell line; 50μM, first assay): 2.0448 | OD490 value, Well 1 (Hela cell line; 50μM, first assay): 2.0719 | OD490 value, Well 2 (Hela cell line; 50μM, first assay): 2.1034 | OD490 value, Well 3 (Hela cell line; 50μM, first assay): 1.9590 | OD490 value, Mean (Hela cell line; 50μM, second assay): 2.0574 | OD490 value, Well 1 (Hela cell line; 50μM, second assay): 1.9987 | OD490 value, Well 2 (Hela cell line; 50μM, second assay): 2.1136 | OD490 value, Well 3 (Hela cell line; 50μM, second assay): 2.0599 | OD490 value, Mean (Hela cell line; 50μM, third assay): 2.0424 | OD490 value, Well 1 (Hela cell line; 50μM, third assay): 2.0136 | OD490 value, Well 2 (Hela cell line; 50μM, third assay): 1.9658 | OD490 value, Well 3 (Hela cell line; 50μM, third assay): 2.1478 | OD490 value, Mean (Hela cell line; 100μM, first assay): 1.9714 | OD490 value, Well 1 (Hela cell line; 100μM, first assay): 1.9106 | OD490 value, Well 2 (Hela cell line; 100μM, first assay): 1.9576 | OD490 value, Well 3 (Hela cell line; 100μM, first assay): 2.0459 | OD490 value, Mean (Hela cell line; 100μM, second assay): 1.9690 | OD490 value, Well 1 (Hela cell line; 100μM, second assay): 2.0360 | OD490 value, Well 2 (Hela cell line; 100μM, second assay): 1.8490 | OD490 value, Well 3 (Hela cell line; 100μM, second assay): 2.0220 | OD490 value, Mean (Hela cell line; 100μM, third assay): 1.9075 | OD490 value, Well 1 (Hela cell line; 100μM, third assay): 2.0141 | OD490 value, Well 2 (Hela cell line; 100μM, third assay): 1.8426 | OD490 value, Well 3 (Hela cell line; 100μM, third assay): 1.8657 | IC50 (Hela cell line; MTS assay, 24 h exposure): 128 µM
